Among the data in PubChem BioAssay (NCI) are TGI and GI50 values, retold here.

Each structure is given as a SMILES string.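 Dose response: 5 concentrations. Exposure: 48 h. Format: 96-well plates. Endpoint: linear interpolation; highest concentration if not reached. GI50 marks 50% less growth. The concentration for full growth arrest is given as TGI.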

In the first experiment the test system is HCT-116 colon. As to the kind of experiment: NCI anticancer screen, dose series, 48 h.
Molecule `CCCC(=O)OC1C(C(O)CO)OC2OC(C)(C)OC21` (stereo not given) gave a TGI greater than 100 µM.
Take `COC(=O)[C@H](C[C@H](Cc1ccccc1)NC(=O)c1csc([C@@H](C[C@H](C(C)C)N(C)C(=O)[C@@H](NC(=O)[C@H]2CCCCN2C)C(C)C)OC(C)=O)n1)NC(=O)OCc1ccccc1`: the GI50 was less than 0.0009 µM.
In the case of `COC(C(=O)[O][Ge]([CH3])([CH3])[CH3])c1ccccc1` (stereo not given), the GI50 was greater than 100 µM and the TGI was greater than 100 µM.
The molecule `CC(=O)OCC1OC(OC2C(CSC3OC(COC(C)=O)C(OC(C)=O)C(OC(C)=O)C3OC(C)=O)OC(OC(C)=O)C(OC(C)=O)C2OC(C)=O)C(OC(C)=O)C(OC(C)=O)C1OC(C)=O` (stereo not given) came in with a TGI greater than 100 µM.
Molecule `NNC(=O)/C(=C/c1ccc(Cl)cc1Cl)NC(=O)c1ccccc1` had a TGI greater than 100 µM.
In the case of `Nc1ccccc1C#C/C=C\C#Cc1cccs1`, the GI50 is 9.55 µM and the TGI is 46.5 µM.
Taken in the same sequence, the figures for `COc1ccc2c(c1)cn1c3ccc(O)cc3nc(N)c21` were 0.0341 µM and 1.86 µM.
For `O=C(O)/C=C\C(=O)N1C/C(=C\c2ccccc2Cl)C(=O)/C(=C/c2ccccc2Cl)C1`, in that order: 1.6 µM and 3.45 µM.
For `CC#C[C@]1(O)CC[C@H]2[C@@H]3CCC4=CC(=O)CCC4=C3[C@@H](c3ccc4c(c3)OCO4)C[C@@]21C`, in that order: 31.2 µM and 126 µM.

A further experiment concerns LOX IMVI melanoma. In words: NCI anticancer screen, dose series, 48 h.
`COc1ccc(-c2c3c(N)nc(-c4ccncc4)nc3nc3c2c(C)nn3-c2ccccc2)cc1`: the GI50 is 10100 nM and the TGI is greater than 100 µM.
In the case of `C#CCOCn1cnc2c(Cl)ncnc21`, the TGI is greater than 100 µM.
On to `Oc1cccc2ccc(N/N=C/c3cc(CN4CCCCC4)c(O)c4ncccc34)nc12`, for which the GI50 was 55.3 nM and the TGI turned out to be 1.61 µM.
As to `COc1cccc(-n2ncc3c(N/N=C/c4ccc(C(=O)NCCN(C)C)cc4)ncnc32)c1`, the GI50 is 1280 nM and the TGI is 5.62 µM.
Turning to `O=c1/c(=C/c2ccccc2F)sc2nc3ccccc3n12`, the TGI is greater than 100 µM.
Turning to `CC1(C)CC(=O)c2c(C(F)(F)F)nn(-c3ccc(C(N)=O)c(NC4CCC(OC(=O)CN)CC4)c3)c2C1` (stereo not given), the GI50 is 61.6 nM and the TGI was 0.33 µM.
With `O=C(NCCCCCCNC(=O)n1cc(F)c(=O)[nH]c1=O)NCCCOCCOCCOCCOCCOCCOCCOCCOCCOCCOCCOCCOCCOCCOCCOCCOCCOCCOCCOCCOCCOCCCNC(=O)C(O)C(O)C(O)C(O)CO` (stereo not given), the TGI is greater than 100 µM.
For the molecule `COc1cc(C2CC(c3ccc4c(c3)OCO4)=NN2C=O)cc(OC)c1OC` (stereo not given), the GI50 was 1270 nM and the TGI is greater than 100 µM.
As to `CCCC(=O)OC1C(C(O)CO)OC2OC(C)(C)OC21` (stereo not given), the TGI is greater than 100 µM.
On to `COC(=O)[C@H](C[C@H](Cc1ccccc1)NC(=O)c1csc([C@@H](C[C@H](C(C)C)N(C)C(=O)[C@@H](NC(=O)[C@H]2CCCCN2C)C(C)C)OC(C)=O)n1)NC(=O)OCc1ccccc1`, for which the GI50 was less than 0.9 nM and the TGI was greater than 9 µM.
As for `COC(C(=O)[O][Ge]([CH3])([CH3])[CH3])c1ccccc1` (stereo not given), the GI50 was greater than 100000 nM and the TGI was greater than 100 µM.
The molecule `CC(=O)OCC1OC(OC2C(CSC3OC(COC(C)=O)C(OC(C)=O)C(OC(C)=O)C3OC(C)=O)OC(OC(C)=O)C(OC(C)=O)C2OC(C)=O)C(OC(C)=O)C(OC(C)=O)C1OC(C)=O` (stereo not given) yielded a TGI greater than 100 µM.
On to `NNC(=O)/C(=C/c1ccc(Cl)cc1Cl)NC(=O)c1ccccc1`, for which the TGI is greater than 100 µM.
For `Nc1ccccc1C#C/C=C\C#Cc1cccs1`, the GI50 is 3550 nM and the TGI was 14.7 µM.
For `COc1ccc2c(c1)cn1c3ccc(O)cc3nc(N)c21`, in that order: 71.2 nM and 1.94 µM.
For `O=C(O)/C=C\C(=O)N1C/C(=C\c2ccccc2Cl)C(=O)/C(=C/c2ccccc2Cl)C1`, the GI50 was 1560 nM and the TGI amounted to 3.71 µM.
Consider `CC#C[C@]1(O)CC[C@H]2[C@@H]3CCC4=CC(=O)CCC4=C3[C@@H](c3ccc4c(c3)OCO4)C[C@@]21C`, for which the GI50 is 113000 nM and the TGI came to 253 µM.

The subject of a further experiment is MALME-3M melanoma. As to the kind of experiment: NCI anticancer screen, dose series, 48 h.
As for `COc1ccc(-c2c3c(N)nc(-c4ccncc4)nc3nc3c2c(C)nn3-c2ccccc2)cc1`, the GI50 was 14.5 µM and the TGI was greater than 100 µM.
Regarding `C#CCOCn1cnc2c(Cl)ncnc21`, the TGI was greater than 100 µM.
With `Oc1cccc2ccc(N/N=C/c3cc(CN4CCCCC4)c(O)c4ncccc34)nc12`, the GI50 was 0.223 µM and the TGI turned out to be 4.49 µM.
Turning to `COc1cccc(-n2ncc3c(N/N=C/c4ccc(C(=O)NCCN(C)C)cc4)ncnc32)c1`, the GI50 was 3.43 µM and the TGI came out at 7.81 µM.
For `O=c1/c(=C/c2ccccc2F)sc2nc3ccccc3n12`, the TGI was greater than 100 µM.
For the molecule `CC1(C)CC(=O)c2c(C(F)(F)F)nn(-c3ccc(C(N)=O)c(NC4CCC(OC(=O)CN)CC4)c3)c2C1` (stereo not given), the GI50 was 0.0468 µM and the TGI is greater than 100 µM.
`O=C(NCCCCCCNC(=O)n1cc(F)c(=O)[nH]c1=O)NCCCOCCOCCOCCOCCOCCOCCOCCOCCOCCOCCOCCOCCOCCOCCOCCOCCOCCOCCOCCOCCOCCCNC(=O)C(O)C(O)C(O)C(O)CO` (stereo not given) showed a TGI greater than 100 µM.
`COc1cc(C2CC(c3ccc4c(c3)OCO4)=NN2C=O)cc(OC)c1OC` (stereo not given): the GI50 was 1.93 µM and the TGI was greater than 100 µM.
In turn, `CCCC(=O)OC1C(C(O)CO)OC2OC(C)(C)OC21` (stereo not given) gave a TGI greater than 100 µM.
In the case of `COC(=O)[C@H](C[C@H](Cc1ccccc1)NC(=O)c1csc([C@@H](C[C@H](C(C)C)N(C)C(=O)[C@@H](NC(=O)[C@H]2CCCCN2C)C(C)C)OC(C)=O)n1)NC(=O)OCc1ccccc1`, the GI50 is less than 0.0009 µM and the TGI is 2.67 µM.
Consider `COC(C(=O)[O][Ge]([CH3])([CH3])[CH3])c1ccccc1` (stereo not given), for which the GI50 was greater than 100 µM and the TGI is greater than 100 µM.
In turn, `CC(=O)OCC1OC(OC2C(CSC3OC(COC(C)=O)C(OC(C)=O)C(OC(C)=O)C3OC(C)=O)OC(OC(C)=O)C(OC(C)=O)C2OC(C)=O)C(OC(C)=O)C(OC(C)=O)C1OC(C)=O` (stereo not given) displayed a TGI greater than 100 µM.
The same measure, in the same setting: under `NNC(=O)/C(=C/c1ccc(Cl)cc1Cl)NC(=O)c1ccccc1` stands greater than 100 µM.
As to `Nc1ccccc1C#C/C=C\C#Cc1cccs1`, the GI50 is 5.38 µM and the TGI came to 29.2 µM.
For `COc1ccc2c(c1)cn1c3ccc(O)cc3nc(N)c21`, the GI50 was 0.0714 µM and the TGI amounted to 23.2 µM.
With `O=C(O)/C=C\C(=O)N1C/C(=C\c2ccccc2Cl)C(=O)/C(=C/c2ccccc2Cl)C1`, the GI50 is 3.96 µM and the TGI turned out to be 18.4 µM.
Taken in the same sequence, the figures for `CC#C[C@]1(O)CC[C@H]2[C@@H]3CCC4=CC(=O)CCC4=C3[C@@H](c3ccc4c(c3)OCO4)C[C@@]21C` were 173 µM and 556 µM.
